Each structure is given as a SMILES string. Converted amounts (≈) assume the structure as drawn. “And” between values parts separate entries of the source, which are not always exact repeats. Equal values may be shown once. Where only a bound is given, the exact number is not on record here.

This is an account of results in DBAASP.

Test systems include Escherichia coli; Staphylococcus aureus; Acinetobacter baumannii; Klebsiella pneumoniae; Pseudomonas aeruginosa.
Assay in all cases: ≥ marks a high value that may be exact or a test limit, other limits are often not marked, values filed in µg/mL are converted to µM
The test system of experiment [1] is Candida albicans ATCC 2002.
Experiment [2] concerns Escherichia coli ATCC 25922.
The subject of experiment [3] is Pseudomonas aeruginosa CMCCB 10104.
In experiment [4] the test system is Staphylococcus aureus ATCC 25923.
Experiment [5] concerns Acinetobacter baumannii ATCC 19606.
The subject of experiment [6] is Klebsiella pneumoniae ATCC 13883.
For experiment [7], the system named is Pseudomonas aeruginosa ATCC 27853.
Experiment [8] has as its system Pseudomonas aeruginosa PAO1.
The test system of experiment [9] is Salmonella enterica subsp. enterica serovar Typhimurium ATCC 14028.

Usually MIC stands for the lowest concentration that inhibits growth of the organism. The low end stands for greater potency, the high end for weaker potency. Take `CC[C@H](C)[C@H](NC(=O)CN)C(=O)N[C@@H](CC(C)C)C(=O)N[C@@H](CO)C(=O)NCC(=O)N[C@H](C(=O)N[C@@H](CC(C)C)C(=O)NCC(=O)N[C@@H](CCSC)C(=O)NCC(=O)N[C@@H](CCCCN)C(=O)N[C@@H](CCCCN)C(=O)N[C@H](C(=O)N[C@H](C(=O)N[C@H]1CSSC[C@@H](C(=O)O)NC(=O)[C@H](CC(C)C)NC(=O)CNC(=O)[C@H](CO)NC(=O)[C@H](CC(C)C)NC(=O)CNC1=O)C(C)C)[C@@H](C)CC)C(C)C` [GILSGVLGMGKKIVCGLSGLC]: the minimum inhibitory concentration (MIC) came out at 2.19 µM (≈ 4.4 µg/mL) in [1]; 2.19 µM (≈ 4.4 µg/mL) in experiment [2]; 25 µM (≈ 50.1 µg/mL) against Escherichia coli; 4.39 µM (≈ 8.79 µg/mL) in experiment [3]; 4.39 µM (≈ 8.79 µg/mL) in experiment [4]; 50 µM (≈ 100 µg/mL) against Staphylococcus aureus.
On to `CC[C@H](C)[C@H](NC(=O)[C@@H](NC(=O)[C@H](CC(=O)O)NC(=O)[C@H](CC(C)C)NC(=O)[C@H](CC(C)C)NC(=O)CN)[C@@H](C)O)C(=O)N[C@@H](CCCCN)C(=O)N[C@@H](CC(N)=O)C(=O)N[C@@H](CCSC)C(=O)N[C@@H](C)C(=O)N[C@@H](CC(C)C)C(=O)N[C@@H](CC(N)=O)C(=O)N[C@@H](C)C(=O)N[C@@H](C)C(=O)N[C@@H](CCCCN)C(=O)N[C@@H](CO)C(=O)N[C@@H](C)C(=O)NCC(=O)N[C@H](C(=O)N[C@@H](CO)C(=O)N[C@H](C(=O)N[C@@H](CC(C)C)C(=O)N[C@@H](CC(N)=O)C(=O)N[C@H](C(=O)N[C@@H](CC(C)C)C(=O)N[C@@H](CO)C(=O)N[C@H]1CSSC[C@@H](C(=O)O)NC(=O)[C@H]([C@@H](C)O)NC(=O)[C@H](CCCCN)NC(=O)[C@H](CO)NC(=O)[C@H](CC(C)C)NC(=O)[C@H](CCCCN)NC1=O)[C@@H](C)O)C(C)C)C(C)C` [GLLDTIKNMALNAAKSAGVSVLNTLSCKLSKTC], for which the MIC in experiment [1] was 5.11 µM (≈ 17.2 µg/mL); in experiment [2], 2.56 µM (≈ 8.6 µg/mL); in experiment [3] it was 2.56 µM (≈ 8.6 µg/mL); in experiment [4] it was 2.56 µM (≈ 8.6 µg/mL).
For `CC[C@H](C)[C@H](NC(=O)[C@H](CCCCN)NC(=O)[C@H](CC(C)C)NC(=O)[C@H](C)NC(=O)[C@H](CCCCN)NC(=O)[C@H](CC(C)C)NC(=O)[C@H](C)NC(=O)CNC(=O)[C@H](CCCCN)NC(=O)[C@H](C)NC(=O)[C@@H](NC(=O)[C@@H](N)CCCCN)[C@@H](C)CC)C(=O)N[C@@H](C)C(=O)N[C@@H](CCCCN)C(=O)NCC(=O)N[C@@H](C)C(=O)N[C@@H](CC(C)C)C(=O)N[C@@H](CCCCN)C(=O)N[C@@H](C)C(=O)N[C@@H](CC(C)C)C(N)=O` [KIAKGALKALKIAKGALKAL], the minimum inhibitory concentration (MIC) in experiment [5] is 1.41 µM (≈ 2.84 µg/mL); against Acinetobacter baumannii it was at least 64 µM; in experiment [2], 4 µM (≈ 8.02 µg/mL); against Escherichia coli it was 64 µM (≈ 128 µg/mL); in experiment [6], 2.83 µM (≈ 5.67 µg/mL); in the experiment on Klebsiella pneumoniae it was 8 µM (≈ 16 µg/mL). In addition, the MIC in experiment [7] amounted to 11.3 µM (≈ 22.7 µg/mL); against Pseudomonas aeruginosa it was 11.3 µM (≈ 22.7 µg/mL); in [4], 22.6 µM (≈ 45.4 µg/mL); in the experiment with Staphylococcus aureus, 16 µM (≈ 32.1 µg/mL).
Take `CC[C@H](C)[C@H](NC(=O)CNC(=O)[C@@H](NC(=O)[C@H](CCCN=C(N)N)NC(=O)[C@@H](NC(=O)[C@@H](NC(=O)[C@H](CC(=O)O)NC(=O)[C@H](CCSC)NC(=O)CNC(=O)[C@@H](NC(=O)[C@H](CCC(=O)O)NC(=O)[C@H](CCCCN)NC(=O)CNC(=O)[C@@H](NC(=O)[C@H](CC(N)=O)NC(=O)[C@H](CCCCN)NC(=O)[C@H](C)NC(=O)CNC(=O)[C@H](CCCCN)NC(=O)[C@@H](NC(=O)[C@H](Cc1ccccc1)NC(=O)[C@H](CC(C)C)NC(=O)[C@H](CC(N)=O)NC(=O)[C@H](CCCCN)NC(=O)[C@@H](NC(=O)[C@H](C)NC(=O)[C@H](CCCCN)NC(=O)CNC(=O)[C@H](CO)NC(=O)[C@@H](NC(=O)[C@@H](N)CCCCN)[C@@H](C)CC)[C@@H](C)CC)[C@@H](C)CC)C(C)C)C(C)C)C(C)C)C(C)C)[C@@H](C)O)C(=O)N[C@@H](CC(=O)O)C(=O)N[C@H](C(=O)N[C@H](C(=O)NCC(=O)N[C@H]1CSSC[C@@H](C(=O)O)NC(=O)[C@H](CCC(=O)O)NC(=O)CNC(=O)[C@H](CCCCN)NC(=O)[C@H]([C@@H](C)CC)NC(=O)[C@H](CCCCN)NC1=O)C(C)C)C(C)C` [KISGKAIKNLFIKGAKNVGKEVGMDVVRTGIDVVGCKIKGEC]: the MIC in [1] came to 0.749 µM (≈ 3.3 µg/mL); in [2], 0.749 µM (≈ 3.3 µg/mL); in experiment [3], 1.5 µM (≈ 6.6 µg/mL); in experiment [4], 1.5 µM (≈ 6.6 µg/mL).
With `CC(C)C[C@H](NC(=O)[C@H](C)NC(=O)[C@H](Cc1c[nH]c2ccccc12)NC(=O)CNC(=O)[C@H](CCCN=C(N)N)NC(=O)[C@@H](N)CCCN=C(N)N)C(=O)N[C@@H](CCCN=C(N)N)C(=O)N1CCC[C@H]1C(=O)N[C@H](C(=O)N[C@@H](CC(C)C)C(=O)N[C@@H](C)C(=O)N[C@@H](Cc1ccccc1)C(=O)NCC(=O)N[C@@H](CCCN=C(N)N)C(=O)N[C@@H](CCCN=C(N)N)C(N)=O)C(C)C` [RRGWALRPVLAFGRR], the MIC in experiment [5] was above 30 µM; in experiment [2] it was above 30 µM; in [6], 30 µM (≈ 54.3 µg/mL); in [8], 14.8 µM and 30 µM; in experiment [9] it was above 30 µM; in experiment [4], above 30 µM.
For `CC(C)C[C@H](NC(=O)[C@H](CCCN=C(N)N)NC(=O)[C@H](CCCN=C(N)N)NC(=O)[C@H](C)NC(=O)[C@H](Cc1c[nH]c2ccccc12)NC(=O)CNC(=O)[C@H](CCCN=C(N)N)NC(=O)[C@@H](N)CCCN=C(N)N)C(=O)N[C@@H](C)C(=O)N[C@@H](Cc1ccccc1)C(=O)NCC(=O)N[C@@H](CCCN=C(N)N)C(=O)N[C@@H](CCCN=C(N)N)C(N)=O` [RRGWARRLAFGRR], the MIC in experiment [5] was above 30 µM; in experiment [2], above 30 µM; in experiment [6] it was 30 µM (≈ 49.7 µg/mL); in experiment [8], above 30 µM; in experiment [9] it was above 30 µM; in experiment [4] it was above 30 µM.
`CC[C@H](C)[C@H](NC(=O)[C@@H](N)C(C)C)C(=O)N[C@H](C(=O)N[C@@H](Cc1ccccc1)C(=O)N[C@H](C(=O)N[C@@H](C)C(=O)N[C@@H](CO)C(=O)N[C@H](C(=O)N[C@@H](C)C(=O)N[C@@H](C)C(=O)N[C@@H](CCC(=O)O)C(=O)N[C@@H](CCSC)C(=O)N[C@@H](CCSC)C(=O)N[C@@H](CCC(N)=O)C(=O)N[C@@H](Cc1cnc[nH]1)C(=O)N[C@H](C(=O)N[C@@H](Cc1ccc(O)cc1)C(=O)N[C@H]1CSSC[C@@H](C(=O)O)NC(=O)[C@H](CCCCN)NC(=O)[C@H](CCCCN)NC(=O)[C@H](CO)NC(=O)[C@H](C)NC(=O)[C@H](C)NC1=O)C(C)C)C(C)C)C(C)C)C(C)C` [VIVFVASVAAEMMQHVYCAASKKC]: the MIC in [1] was 9.59 µM (≈ 24.8 µg/mL); in experiment [2], 2.4 µM (≈ 6.2 µg/mL); in experiment [3], 4.79 µM (≈ 12.4 µg/mL); in experiment [4], 4.79 µM (≈ 12.4 µg/mL).
